The source of these data is patent publication US10093713B2, “GIP-GLP-1 dual agonist compounds and methods” (priority 2013, dated 2018).

Where two headings read alike, the source gives them in different places. *1 amine or outer side, *2 acyl side, *3 side chain or, on linkers, in order; H or OH if unused. Where a SMILES comes first, the peptide text is derived from it. Side-chain parts run from the residue outwards. [ ]: non-standard residue; d: D form. The star is where a group is joined. C20 diacid = O=C(O)CCCCCCCCCCCCCCCCCCC(=O)*; C18 diacid = O=C(O)CCCCCCCCCCCCCCCCC(=O)*; γGlu = O=C(O)[C@H](CCC(=O)[*:2])N[*:1]; AEEA = NCCOCCOCC(=O)O; Aib = CC(C)(N)C(=O)O

For orientation: EC50 means the concentration needed to bring the measured effect to its halfway point.

For one test, the target named is T1, human GIP R (Homo sapiens, UniProt P48546).
T1 construct: expressed in transfected cells
T1 sequence (P48546 22-466): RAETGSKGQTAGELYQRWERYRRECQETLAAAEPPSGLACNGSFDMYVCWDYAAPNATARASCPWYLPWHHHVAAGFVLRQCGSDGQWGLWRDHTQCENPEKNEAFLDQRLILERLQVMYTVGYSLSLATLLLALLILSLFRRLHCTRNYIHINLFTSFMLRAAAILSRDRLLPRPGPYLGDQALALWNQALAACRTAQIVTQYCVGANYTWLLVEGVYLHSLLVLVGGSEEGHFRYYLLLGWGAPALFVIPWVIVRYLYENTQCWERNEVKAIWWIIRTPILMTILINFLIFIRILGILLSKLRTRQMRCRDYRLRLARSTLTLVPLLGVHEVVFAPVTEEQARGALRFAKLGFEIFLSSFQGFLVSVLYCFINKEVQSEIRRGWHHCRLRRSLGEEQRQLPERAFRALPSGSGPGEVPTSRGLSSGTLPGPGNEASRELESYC
Kind of test: Human GIP receptor (GIP R) activity assay, cAMP induction (AlphaScreen) in HEK293 cells. The class given is cell-based. To be noted: read-out: hGIP-R cAMP EC50 average value. The method, boiled down: (§1)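 Stable HEK293 clones expressing human GIP R or GLP-1 R, seeded 1 day before; cells washed in Tyrode's buffer (10 mM HEPES, pH 7.4), stimulated, then lysed. cAMP measured by AlphaScreen bead competition (1 h, room temperature, dark). EC50 = concentration giving half-maximal cAMP elevation, from curves of absolute cAMP (nM) vs log concentration.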

In the next test the target is T2, human GLP-1 R (Homo sapiens, UniProt P43220).
T2 construct: expressed in transfected cells
Kind of test: Human GLP-1 receptor (GLP-1 R) activity assay, cAMP induction (AlphaScreen) in HEK293 cells. The class given is cell-based. Conditions: Table 2; HEK293 cells expressing human GLP-1 R; read-out: hGLP1-R cAMP EC50 average value. The method, boiled down: as §1

The mark [1] stands for this setting: Table 3, most comprehensive data.

T2 sequence (P43220 24-463): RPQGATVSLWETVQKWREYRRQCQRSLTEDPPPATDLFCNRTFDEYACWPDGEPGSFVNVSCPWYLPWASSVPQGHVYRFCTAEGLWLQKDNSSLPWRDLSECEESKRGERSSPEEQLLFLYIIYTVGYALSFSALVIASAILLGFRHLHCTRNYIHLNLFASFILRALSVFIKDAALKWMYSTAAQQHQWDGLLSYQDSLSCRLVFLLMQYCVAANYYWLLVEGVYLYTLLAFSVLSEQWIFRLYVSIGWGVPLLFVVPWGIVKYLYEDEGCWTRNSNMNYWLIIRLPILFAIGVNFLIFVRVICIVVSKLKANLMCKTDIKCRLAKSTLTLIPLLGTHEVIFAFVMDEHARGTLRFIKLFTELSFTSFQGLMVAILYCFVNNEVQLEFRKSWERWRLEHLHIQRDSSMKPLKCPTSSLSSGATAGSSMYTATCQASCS

Regarding `CC[C@H](C)[C@H](NC(=O)[C@H](CO)NC(=O)[C@H](CC(C)C)NC(=O)[C@H](CC(=O)O)NC(=O)[C@H](CO)NC(=O)[C@@H](NC(=O)[C@H](Cc1ccccc1)NC(=O)[C@@H](NC(=O)CNC(=O)[C@H](CCC(=O)O)NC(=O)C(C)(C)NC(=O)[C@@H](N)Cc1ccc(O)cc1)[C@@H](C)O)[C@@H](C)O)C(=O)N[C@@H](C)C(=O)N[C@@H](CC(C)C)C(=O)N[C@@H](CCC(=O)O)C(=O)N[C@@H](CCCCN)C(=O)N[C@@H](CCCCNC(=O)COCCOCCNC(=O)COCCOCCNC(=O)CC[C@H](NC(=O)CCCCCCCCCCCCCCCCC(=O)O)C(=O)O)C(=O)N[C@@H](C)C(=O)N[C@@H](CCC(N)=O)C(=O)N[C@@H](CCCNC(=N)N)C(=O)N[C@@H](C)C(=O)N[C@@H](Cc1ccccc1)C(=O)N[C@H](C(=O)N[C@@H](CCC(=O)O)C(=O)N[C@@H](Cc1c[nH]c2ccccc12)C(=O)N[C@@H](CC(C)C)C(=O)N[C@@H](CCC(=O)O)C(=O)N[C@@H](C)C(=O)N[C@@H](CCC(N)=O)C(=O)N[C@@H](CCCCN)C(N)=O)C(C)C` [Compound 24] (H-Y[Aib]EGTFTSDLSIALEKK([AEEA-AEEA-γGlu-C18 diacid])AQRAFVEWLEAQK-NH2), the EC50 on human GIP R (setting [1]) is 0.26 nM; on human GLP-1 R, 0.011 nM.
As to `CC[C@H](C)[C@H](NC(=O)[C@H](CO)NC(=O)[C@H](Cc1ccc(O)cc1)NC(=O)[C@H](CC(=O)O)NC(=O)[C@H](CO)NC(=O)[C@@H](NC(=O)[C@H](Cc1ccccc1)NC(=O)[C@@H](NC(=O)CNC(=O)[C@H](CCC(=O)O)NC(=O)C(C)(C)NC(=O)[C@@H](N)Cc1ccc(O)cc1)[C@@H](C)O)[C@@H](C)O)C(=O)N[C@@H](C)C(=O)N[C@@H](CC(C)C)C(=O)N[C@@H](CCC(=O)O)C(=O)N[C@@H](CCCCN)C(=O)N[C@@H](CCCCNC(=O)COCCOCCNC(=O)COCCOCCNC(=O)CC[C@H](NC(=O)CCCCCCCCCCCCCCCCCCC(=O)O)C(=O)O)C(=O)N[C@@H](C)C(=O)N[C@@H](CCC(N)=O)C(=O)N[C@@H](CCCNC(=N)N)C(=O)N[C@@H](C)C(=O)N[C@@H](Cc1ccccc1)C(=O)N[C@H](C(=O)N[C@@H](CCC(=O)O)C(=O)N[C@@H](Cc1c[nH]c2ccccc12)C(=O)N[C@@H](CC(C)C)C(=O)N[C@@H](CC(C)C)C(=O)N[C@@H](C)C(=O)N[C@@H](CCC(N)=O)C(=O)N[C@@H](CCCCN)C(N)=O)C(C)C` [Compound 25] (H-Y[Aib]EGTFTSDYSIALEKK([AEEA-AEEA-γGlu-C20 diacid])AQRAFVEWLLAQK-NH2), the EC50 at human GIP R (Table 2, HEK293 cells expressing human GIP R) was found to be 0.009 nM; on human GIP R (setting [1]), 0.009 nM; at human GLP-1 R it was 0.011 nM.
As for `CC[C@H](C)[C@H](NC(=O)[C@H](CO)NC(=O)[C@H](CC(C)C)NC(=O)[C@H](CC(=O)O)NC(=O)[C@H](CO)NC(=O)[C@@H](NC(=O)[C@H](Cc1ccccc1)NC(=O)[C@@H](NC(=O)CNC(=O)[C@H](CCC(=O)O)NC(=O)C(C)(C)NC(=O)[C@@H](N)Cc1ccc(O)cc1)[C@@H](C)O)[C@@H](C)O)C(=O)N[C@@H](C)C(=O)N[C@@H](CC(C)C)C(=O)N[C@@H](CCC(=O)O)C(=O)N[C@@H](CCCCN)C(=O)N[C@@H](CCCCNC(=O)COCCOCCNC(=O)COCCOCCNC(=O)CC[C@H](NC(=O)CCCCCCCCCCCCCCCCCCC(=O)O)C(=O)O)C(=O)N[C@@H](C)C(=O)N[C@@H](CCC(N)=O)C(=O)N[C@@H](CCCNC(=N)N)C(=O)N[C@@H](C)C(=O)N[C@@H](Cc1ccccc1)C(=O)N[C@H](C(=O)N[C@@H](CCC(=O)O)C(=O)N[C@@H](Cc1c[nH]c2ccccc12)C(=O)N[C@@H](CC(C)C)C(=O)N[C@@H](CCC(=O)O)C(=O)N[C@@H](C)C(=O)N[C@@H](CCC(N)=O)C(=O)N[C@@H](CCCCN)C(N)=O)C(C)C` [Compound 26] (H-Y[Aib]EGTFTSDLSIALEKK([AEEA-AEEA-γGlu-C20 diacid])AQRAFVEWLEAQK-NH2), the figures for the EC50 on human GIP R (setting [1]) and at human GLP-1 R were 0.58 nM and 0.014 nM, respectively.
